Assay results: patent US11999806B2, “Broad-spectrum polypeptide against enterovirus and application thereof” (WUHAN INSTITUTE OF VIROLOGY, CHINESE ACADEMY OF SCIENCES, priority 2018, dated 2024)
Values joined by “and” are separate entries in the source; they are usually repeats but may differ in a detail not shown here. Identical values can stand only once. No end group written: not given here.

Tests used:
[1] = Cytotoxicity by CCK-8 in RD cells; format: cell-based; settings: human; for viability at 24 h, 0.01 µM: 0.01 μM polypeptide; for viability at 24 h, 0.01 µM / viability at 24 h, 0.1 µM / viability at 24 h, 1 µM / viability at 24 h, 10 µM / viability at 24 h, 100 µM: untreated = 100%, read-out: Cell viability (%); for viability at 24 h, 0.1 µM: 0.1 μM polypeptide; for viability at 24 h, 1 µM: 1 μM polypeptide; for viability at 24 h, 10 µM: 10 μM polypeptide; for viability at 24 h, 100 µM: 100 μM polypeptide; for CC50 at 24 h: Table 1 summary, cell line not given, read-out: CC50
Protocol: (§1) The experiment was performed as follows. • (1) RD cells were plated in a 96-well plate at 100 μl per well. • (2) After the cells reached 70%-80% confluence, the MEM medium containing 10% serum was replaced with a MEM medium containing 2% serum. Then, polypeptide P2 was added to generate gradient concentrations of 0.01 μM, 0.1 μM, 1 μM, 10 μM, and 100 μM (final concentration), respectively. • (3) The test was performed 24 hours after the addition of the polypeptide, and 10 μl of viable cell detection reagent CCK-8 was added to each well and mixed well. • (4) The plate was incubated at 37° C. for 2 h. • (5) The absorbance value at OD450 was measured with a microplate reader.
as §1, with “P1” for “P2”, “concentrations),” for “concentration),”
(§2) RD cells were used to test the antiviral effect of polypeptide P1. When RD cells reached 80% confluence, polypeptide P1 was added at concentrations of 0 μM (control group), 0.01 μM, 0.1 μM, 1 μM, 10 μM, and 100 μM, respectively. Three parallel wells were used for each concentration. The test was carried out 24 hours later, and the cell viability was detected using the CCK-8 kit.
as §1, with “3A-TAT-EP” for “P2”, “concentrations),” for “concentration),”
as §2, with “3A-TAT-EP.” for “P1.”, “3A-TAT-EP” for “P1”
as §1, with “Then, 3A-EP-DRI or 3A-EP-PEG4-PA” for “Then, polypeptide P2”, “and 50” for “and 100”, “(final concentrations),” for “(final concentration),”
as §2, with “polypeptides 3A-EP-DRI and 3A-EP-PEG4-PA.” for “polypeptide P1.”, “3A-EP-DRI or 3A-EP-PEG4-PA” for “P1”, “50” for “100”, “kit. […]” for “kit.”

[2] = system: RD cells; test: Cytotoxicity by CCK-8 in RD cells; format: cell-based; settings: RD cells; for Cell viability (%): 24 h, untreated = 100%; for cytotoxicity, result in words: CCK-8, 24 h
Protocol: as §1
as §1, with “P1” for “P2”, “concentrations),” for “concentration),”
as §2
as §1, with “3A-TAT-EP” for “P2”, “concentrations),” for “concentration),”
as §2, with “3A-TAT-EP.” for “P1.”, “3A-TAT-EP” for “P1”
as §1, with “Then, 3A-EP-DRI or 3A-EP-PEG4-PA” for “Then, polypeptide P2”, “and 50” for “and 100”, “(final concentrations),” for “(final concentration),”
as §2, with “polypeptides 3A-EP-DRI and 3A-EP-PEG4-PA.” for “polypeptide P1.”, “3A-EP-DRI or 3A-EP-PEG4-PA” for “P1”, “50” for “100”, “kit. […]” for “kit.”

[3] = system: EV71; test: Anti-EV71 efficiency in RD cells, viral RNA by qRT-PCR; format: cell-based, enterovirus 71; settings: 24 h, control infected without polypeptide
Protocol: • (1) RD cells were plated in five 100 mm dishes. • (2) After the cells reached 70%-80% confluence, the MEM medium containing 10% serum was replaced with a MEM medium containing 2% serum. […] When the changes were obvious, samples were collected as follows. • (4) The supernatant in the 100 mm dish was transferred into a 15 ml centrifuge tube, and centrifuged at 500 g for 5 min. • (5) The supernatant was transferred into a new 15 ml centrifuge tube, and filtered through 0.22 μm filter membrane with a 50 ml syringe. • (6) RNA was extracted from 100 μl of the supernatant obtained in step (5) and subjected to one step qRT-PCR to measure the virus titer, and the previously extracted virus RNA with known titer was handled together as a control. 3. Measure Antiviral Efficiency of Polypeptide in RD Cells. • (1) Different cells were plated in 24-well cell plates. • (2) After the cells reached 70%-80% confluence, the MEM medium containing 10% serum was replaced with a MEM medium containing 2% serum (0.5 ml/well), and 5 μl of 10^6 PFU/mL EV71 viruses per well were added. • (3) After 1 h, different polypeptides were added at a final concentration of 0.01 μM, 0.1 μM, 1 μM, 10 μM, and 50 μM, respectively. • (4) Samples were collected 24 hours after virus infection, and RNA was extracted with total RNA extraction kit as follows. • (5) The supernatant in the wells was discarded, then 350 μl of TRK Lysis Buffer was added to each well and the plate was shaken on the shaker for 5 minutes. • (6) 350 μl of 70% ethanol (DEPC-treated) was added to the well and the plate was shaken on the shaker for 5 minutes. • (7) The mixture in the well was transferred to a RNA extraction column and centrifuged at 12,000 g for 1 min. • (8) The solution collected in the recovery tube was added back to the column and centrifuged at 12,000 g for 1 min. • (9) RNA washing buffer 1 was added to the column and centrifuged at 12,000 g for 30 s. • (10) RNA washing buffer 2 was added to the column and centrifuged at 12,000 g for 1 min. • (11) Step (10) was repeated once. • (12) The column was centrifuged at 12000 g for 2 min to completely remove residual RNA washing buffer. • (13) 50 μl DEPC-treated H2O was added to the column and centrifuge at 12,000 g for 2 min. • (14) 2 μl RNA sample was used according to one step qRT-PCR kit for fluorescence quantification experiment.
RD cells added with R8 penetrating peptide (sequence: RRRRRRRR) were used as a negative control.
RD cells were used to test the antiviral effect of polypeptide P2. EV71 (MOI=0.1) was added to RD cells at 80% confluence. After 1 hour of infection, polypeptide P2 was added at concentrations of 0.01 μM, 0.1 μM, 1 μM, 10 μM, and 50 μM, respectively. The samples were collected 24 hours later, and the total RNA was extracted. The level of viral genomic RNA was detected by qRT-PCR. The cells infected with the same type virus and added with penetrating peptide R8 were used as a control group.
• (1) RD cells were plated in five 100 mm dishes. • (2) After the cells reached 70%-80% confluence, the MEM medium containing 10% serum was replaced with a MEM medium containing 2% serum. […] When the changes were obvious, samples were collected as follows. • (4) The supernatant in the 100 mm dish was transferred into a 15 ml centrifuge tube, and centrifuged at 500 g for 5 min. • (5) The supernatant was transferred into a new 15 ml centrifuge tube, and filtered through 0.22 μm filter membrane with a 50 ml syringe. • (6) RNA was extracted from 100 μl of the supernatant obtained in step (5) and subjected to one step qRT-PCR to measure the virus titer, and the previously extracted virus RNA with known titer was handled together as a control. 3. […]

Compound | viability at 24 h, 0.01 µM ([1]; RD cells) | viability at 24 h, 0.1 µM ([1]; RD cells) | viability at 24 h, 1 µM ([1]; RD cells) | viability at 24 h, 10 µM ([1]; RD cells) | viability at 24 h, 100 µM ([1]; RD cells) | CC50 at 24 h [1] | Cell viability (%) ([2]; 0.01 μM polypeptide) | Cell viability (%) ([2]; 0.1 μM polypeptide) | Cell viability (%) ([2]; 1 μM polypeptide) | Cell viability (%) ([2]; 10 μM polypeptide) | Cell viability (%) ([2]; 100 μM polypeptide) | cytotoxicity, result in words [2] | Relative viral RNA amount (%) ([3]; EV71 MOI=0.1, 0.01 μM) | Relative viral RNA amount (%) ([3]; EV71 MOI=0.1, 0.1 μM) | Relative viral RNA amount (%) ([3]; EV71 MOI=0.1, 1 μM) | Relative viral RNA amount (%) ([3]; EV71 MOI=0.1, 10 μM) | viability at 24 h ([1]; RD cells, Cell viability (%))
RRRRRRRRAISDLLAS [P1] | 103% | 106% | 103% | 103% | 100% | > 100 µM | 98.82% and 106.3% | 104.9% and 99.14% | 105.5% and 102.9% | 107.1% and 98.61% | 97.06% and 98.38% | not toxic to cells within 100 μM | – | – | – | – | –
EP-CHOL: SEQ ID NO: 9, EEVRQYCREQGWIIP-AK-cholesterol (Chol) | – | – | – | – | – | – | – | – | – | – | – | – | 75.49% and 59.54% and 59.75% | 75.76% and 70.99% and 60.98% | 96.78% and 76.07% and 59.55% | 39.12% and 66.18% and 37.09% | –
CCCCCCCCCCCCCCCC(=O)NCCCC[C@H](NC(=O)CCNC(=O)[C@@H]1CCCN1C(=O)[C@@H](NC(=O)[C@@H](NC(=O)[C@H](Cc1c[nH]c2ccccc12)NC(=O)CNC(=O)[C@H](CCC(N)=O)NC(=O)[C@H](CCC(=O)O)NC(=O)[C@H](CCCNC(=N)N)NC(=O)[C@H](CS)NC(=O)[C@H](Cc1ccc(O)cc1)NC(=O)[C@H](CCC(N)=O)NC(=O)[C@H](CCCNC(=N)N)NC(=O)[C@@H](NC(=O)[C@H](CCC(=O)O)NC(=O)[C@@H](N)CCC(=O)O)C(C)C)[C@@H](C)CC)[C@@H](C)CC)C(=O)O [EP-PA] | – | – | – | – | – | – | – | – | – | – | – | – | 83.07% and 76.47% and 56.74% | 79.01% and 67.55% and 53.7% | 86.29% and 75.98% and 56.91% | – | –
CC[C@H](C)[C@H](NC(=O)[C@H](Cc1c[nH]c2ccccc12)NC(=O)CNC(=O)[C@H](CCC(N)=O)NC(=O)[C@H](CCC(=O)O)NC(=O)[C@H](CCCNC(=N)N)NC(=O)[C@H](CS)NC(=O)[C@H](Cc1ccc(O)cc1)NC(=O)[C@H](CCC(N)=O)NC(=O)[C@H](CCCNC(=N)N)NC(=O)[C@@H](NC(=O)[C@H](CCC(=O)O)NC(=O)[C@H](CCC(=O)O)NC(=O)CNC(=O)[C@H](CO)NC(=O)CNC(=O)[C@H](CCCNC(=N)N)NC(=O)[C@H](CCCNC(=N)N)NC(=O)[C@H](CCCNC(=N)N)NC(=O)[C@H](CCC(N)=O)NC(=O)[C@H](CCCNC(=N)N)NC(=O)[C@H](CCCNC(=N)N)NC(=O)[C@H](CCCCN)NC(=O)[C@H](CCCCN)NC(=O)[C@H](CCCNC(=N)N)NC(=O)CNC(=O)[C@@H](N)Cc1ccc(O)cc1)C(C)C)C(=O)N[C@H](C(=O)N1CCC[C@H]1C(=O)O)[C@@H](C)CC [3A-TAT-EP] | 103% | 106% | 103% | 103% | 100% | > 100 µM | 98.82% and 106.3% | 104.9% and 99.14% | 105.5% and 102.9% | 107.1% and 98.61% | 97.06% and 98.38% | not toxic to cells within 100 μM | – | – | – | – | –
N=C(N)NCCC[C@H](NC(=O)[C@H](CCCNC(=N)N)NC(=O)[C@H](CCCNC(=N)N)NC(=O)[C@H](CCCNC(=N)N)NC(=O)[C@H](CCCNC(=N)N)NC(=O)[C@H](CCCNC(=N)N)NC(=O)[C@H](CCCNC(=N)N)NC(=O)[C@@H](N)CCCNC(=N)N)C(=O)O [R8, reference compound] | – | – | – | – | – | – | – | – | – | – | – | – | – | – | – | – | 104%
